US20180044343A1, “BICYCLIC IMIDAZOLO DERIVATIVE” (Sumitomo Dainippon Pharma Co., Ltd., priority 2015, published 2018)

Key:
Format in all cases: biochemical
PDE1B [1] = molecular target: T1, PDE1B (Homo sapiens, UniProt Q01064); assay: In vitro HTRF PDE1 inhibition assay (PDE1B); details: in vitro PDE1B HTRF Assay; read-out: IC50
PDE1A3 [2] = molecular target: T2, PDE1A3 (Homo sapiens, UniProt P54750); assay: In vitro HTRF PDE1 inhibition assay (PDE1A3); details: PDE1A3, 100 nM cyclic GMP
Source text: (§1) An exemplary procedure for the in vitro Homogenous Time Resolved Fluorescence assay, which can be used to determine the inhibitory action of compounds of the present invention toward PDE1 or its isoforms, follows.
(§2) The HTRF PDE1 assay utilized the HTRF (Homogenous Time Resolved Fluorescence) technology, which is based on the competition between unlabeled cyclic nucleotide and cyclic nucleotide labeled with XL665 for the binding to cyclic nucleotide-specific antibody labeled with cryptate. The HTRF signal is thus inversely proportional to the concentration of cyclic nucleotide being measured. Since phosphodiesterases break down cyclic nucleotides, the HTRF signal was used to determine PDE activity.
(§3) The Cisbio cGMP HTRF assay kit (Cat no: 62GM2PEC) was utilized. Cyclic GMP was diluted to 200 nM in HTRF assay buffer (1 mM CaCl2, 10 mM MgCl2, 10 mM Tris-HCl, 0.1% BSA, pH 7.4). 10 μl of compound or DMSO was diluted in 200 nM cyclic GMP solution and added to wells of a 96 well white plate to give 100 nM cyclic GMP in 1% DMSO final concentration. PDE (1A3, 1B or 1C) was diluted to 2× working concentration in HTRF assay buffer with 2 μg/ml Calmodulin, and 10 μl was added to initiate the reaction. The plate was then incubated for 45 minutes at 27° C. d2-Labelled cyclic GMP and anti-cGMP cryptate were diluted in 50 mM phosphate buffer, 0.8 M KF, 1% Triton X100, 0.2% BSA, pH 7.0. Following incubation 10 μl d2-cGMP, then 10 μl anti cGMP cryptate were added to each well and the plate was incubated for 60 minutes at room temperature. The plate was then read on Perkin Elmer EnVision at 2 different FRET readings ex/em 340 nm/665 nm and 340 nm/615 nm.
(§4) Compounds having an IC50 of <1 μM are denoted as +++. Compounds having an IC50 of 1-10 μM are denoted as ++. Compounds having an IC50 of 10-100 μM are denoted as +.

PDE1C [3] = molecular target: T3, PDE1C (Homo sapiens, UniProt Q14123); assay: In vitro HTRF PDE1 inhibition assay (PDE1C); details: 100 nM cyclic GMP
Source text: as §1, §2, §3, §4

PDE1B [4] = molecular target: T1, PDE1B; assay: In vitro SPA PDE1 inhibition assay (PDE1B); details: [3H]-cGMP 100 nM
Protocol: (§5) The commercially available Scintillation Proximity Assay (SPA) system (Perkinelmer) was used for PDE1 inhibition assays. SPA Yttrium Silicate beads preferentially binds to non-cyclic GMP compared to cyclic GMP (cGMP) in the presence of zinc sulphate, which enables to measure the amount of enzyme reaction product ([^3H]-GMP) by scintillation counting.
(§6) For PDE1 inhibition assay, 10 μl of the test compounds in 5% dimethyl sulfoxide diluted in SPA assay buffer (1 mM CaCl2, 10 mM MgSO4, 10 mM Tris-HCl, pH 7.4) were placed in a 96-well white microtiter plate, and 20 μl of [^3H]-cGMP solution (100 nM final concentration, Perkinelmer) in SPA assay buffer was added. Assays were initiated by adding 20 μl of PDE (1A3, 1B or 1C) enzyme solution including calmodulin (final concentration 1 μg/ml). After 30 min incubation at 27° C., the reaction was stopped by the addition of 50 μl of a suspension of 10 mg/ml SPA beads in 18 mM ZnSO4. The microtiter plates were settled for 60 min, and then were measured in a TopCount NXT scintillation counter (PerkinElmer). IC50 values were determined from sigmoidal curves by plotting the percentage of PDE activity versus log compound concentration. IC50 was defined as the concentration of the test compounds required to inhibit the cyclic nucleotide hydrolyzing activities of tested PDEs by 50%.

PDE1A3 [5] = molecular target: T2, PDE1A3; assay: In vitro SPA PDE1 inhibition assay (PDE1A3); details: PDE1A3, [3H]-cGMP 100 nM
Protocol: as §5, §6

PDE1C [6] = molecular target: T3, PDE1C; assay: In vitro SPA PDE1 inhibition assay (PDE1C); details: [3H]-cGMP 100 nM
Protocol: as §5, §6

T1 sequence (Q01064 whole entry): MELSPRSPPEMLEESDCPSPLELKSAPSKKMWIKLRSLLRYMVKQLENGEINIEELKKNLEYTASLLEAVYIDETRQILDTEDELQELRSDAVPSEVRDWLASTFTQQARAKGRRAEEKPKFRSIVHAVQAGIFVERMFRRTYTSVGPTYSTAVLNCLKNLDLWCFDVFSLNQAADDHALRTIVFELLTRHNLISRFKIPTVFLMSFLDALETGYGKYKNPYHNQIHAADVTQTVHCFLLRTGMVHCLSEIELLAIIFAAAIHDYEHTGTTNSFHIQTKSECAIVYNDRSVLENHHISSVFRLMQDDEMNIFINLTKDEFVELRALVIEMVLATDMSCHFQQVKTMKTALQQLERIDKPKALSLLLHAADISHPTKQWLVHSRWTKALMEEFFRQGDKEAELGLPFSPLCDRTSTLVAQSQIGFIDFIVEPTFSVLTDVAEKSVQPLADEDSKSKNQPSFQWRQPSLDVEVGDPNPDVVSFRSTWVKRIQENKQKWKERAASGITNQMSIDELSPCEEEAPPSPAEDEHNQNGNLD

| SMILES | IC50 (PDE1B [1]) [nM] | IC50 (PDE1A3 [2]) [µM] | IC50 (PDE1C [3]) [µM] | other results |
| --- | --- | --- | --- | --- |
| CCn1c(OC[C@H]2CC[C@H](OC)CC2)nn2c(C3CCOCC3)ncc2c1=O [Example 91] | < 1000 | < 1 | < 1 | IC50 (PDE1B [4]): 0.028 µM; IC50 (PDE1A3 [5]): 0.074 µM; IC50 (PDE1C [6]): 0.199 µM |
| COc1nn2c(C3CCOCC3)ncc2c(=O)n1C[C@H]1CC[C@@H](OC)CC1 [Example 101] | < 1000 | < 1 | < 1 | IC50 (PDE1B [4]): 0.096 µM; IC50 (PDE1A3 [5]): 0.121 µM; IC50 (PDE1C [6]): 0.192 µM |
| CCO[C@H]1CC[C@@H](COc2nn3c(C4CCOCC4)ncc3c(=O)n2C)CC1 [Example 247] | < 1000 | < 1 | < 1 |  |
| CCO[C@H]1CC[C@H](COc2nn3c(C4CCOCC4)ncc3c(=O)n2CC)CC1 [Example 249] | < 1000 | < 1 | < 1 |  |
| CCn1c(OC[C@H]2CC[C@H](C(F)(F)F)CC2)nn2c(C3CCOCC3)ncc2c1=O [Example 251] | < 1000 | < 1 | < 1 |  |
| COc1nn2c(C3CCOCC3)ncc2c(=O)n1C[C@H]1CC[C@H](OC)CC1 [Example 253] | < 1000 | < 1 | < 1 |  |
| Cn1c(OC2CCCCC2)nn2c(C3CCOCC3)ncc2c1=O [Example 255, 2-(cyclohexyloxy)-3-methyl-7-(tetrahydro-2H-pyran-4-yl)imidazo[5,1-f][1,2,4]triazin-4(3H)-one] | < 1000 | < 1 | < 1 |  |
| CCn1c(OCCC2(C(F)(F)F)CC2)nn2c(C3CCOCC3)ncc2c1=O [Example 283] | < 1000 | < 1 | < 1 |  |
| Cn1c(OCc2ccc(OC(F)(F)F)cc2)nn2c(C3CCOCC3)ncc2c1=O [Example 293] | < 1000 |  |  |  |
| Cn1c(OCC2(C(F)(F)F)CCCC2)nn2c(C3CCOCC3)ncc2c1=O [Example 295] | < 1000 |  |  |  |
| Cn1c(OCC2(C(F)(F)F)CCCCC2)nn2c(C3CCOCC3)ncc2c1=O [Example 297] | < 1000 |  |  |  |
| Cn1c(OCC23CC4CC(CC(C4)C2)C3)nn2c(C3CCOCC3)ncc2c1=O [Example 298] | < 1000 |  |  |  |
| Cn1c(O[C@H]2CC[C@H](O)CC2)nn2c(C3CCOCC3)ncc2c1=O [Example 301] | < 1000 |  |  |  |
| Cn1c(O[C@H]2CC[C@H](C(F)(F)F)CC2)nn2c(C3CCOCC3)ncc2c1=O [Example 305, 3-methyl-7-(tetrahydro-2H-pyran-4-yl)-2-{[trans-4-(trifluoromethyl)cyclohexyl]oxy}-imidazo[5,1-f][1,2,4]triazin-4(3H)-one] | < 1000 |  |  |  |
| Cn1c(O[C@H]2CC[C@@H](C(F)(F)F)CC2)nn2c(C3CCOCC3)ncc2c1=O [Example 307] | < 1000 |  |  |  |
| CO[C@H]1CC[C@H](Oc2nn3c(C4CCOCC4)ncc3c(=O)n2C)CC1 [Example 309] | < 1000 | < 1 | 1 to 10 |  |
| CO[C@H]1CC[C@H](Oc2nn3c(C4CCOCC4)ncc3c(=O)n2C(C)C)CC1 [Example 311] | < 1000 |  |  |  |
| CO[C@H]1CC[C@@H](Oc2nn3c(C4CCOCC4)ncc3c(=O)n2C)CC1 [Example 312] | < 1000 | < 1 | < 1 |  |
| CCO[C@H]1CC[C@H](Oc2nn3c(C4CCOCC4)ncc3c(=O)n2C)CC1 [Example 314] | < 1000 |  |  |  |
| COC[C@H]1CC[C@H](Oc2nn3c(C4CCOCC4)ncc3c(=O)n2C)CC1 [Example 316] | < 1000 |  |  |  |
| COC[C@H]1CC[C@@H](Oc2nn3c(C4CCOCC4)ncc3c(=O)n2C)CC1 [Example 318] | < 1000 | < 1 | < 1 |  |
| CCOC[C@H]1CC[C@@H](Oc2nn3c(C4CCOCC4)ncc3c(=O)n2C)CC1 [Example 320] | < 1000 |  |  |  |
| Cn1c(OC[C@H]2CC[C@H](C(F)(F)F)CC2)nn2c(C3(O)CCOCC3)ncc2c1=O [Example 326, 7-(4-hydroxytetrahydro-2H-pyran-4-yl)-3-methyl-2-{[trans-4-(trifluoromethyl)cyclohexyl]-methoxy}imidazo[5,1-f][1,2,4]triazin-4(3H)-one] | 1000 to 10000 |  |  |  |
| Cn1c(OC[C@H]2CC[C@H](C(F)(F)F)CC2)nn2c(C3(O)CCCCC3)ncc2c1=O [Example 327, 7-(1-Hydroxycyclohexyl)-3-methyl-2-{[trans-4-(trifluoromethyl)cyclohexyl]-methoxy}imidazo[5,1-f][1,2,4]triazin-4(3H)-one] | 1000 to 10000 |  |  |  |
| Cn1c(OC[C@H]2CC[C@H](C(F)(F)F)CC2)nn2c(C3=CCOCC3)ncc2c1=O [Example 328, 7-(3,6-dihydro-2H-pyran-4-yl)-3-methyl-2-{[trans-4-(trifluoromethyl)cyclohexyl]methoxy}-imidazo[5,1-f][1,2,4]triazin-4(3H)-one] | < 1000 |  |  |  |
| Cn1c(OC[C@H]2CC[C@H](C(F)(F)F)CC2)nn2c(C3=CCCCC3)ncc2c1=O [Example 329, 7-(Cyclohex-1-en-1-yl)-3-methyl-2-{[trans-4-(trifluoromethyl)cyclohexyl]-methoxy}imidazo[5,1-f][1,2,4]triazin-4(3H)-one] | 1000 to 10000 |  |  |  |
| CCn1c(OCC2CCC(F)(F)CC2)nn2c(N3CCCC3)ncc2c1=O [Example 332, 2-[(4,4-Difluorocyclohexyl)methoxy]-3-ethyl-7-(pyrrolidin-1-yl)imidazo[5,1-f][1,2,4]triazin-4(3H)-one] | 10000 to 100000 |  |  |  |

More lines, main results first:

| IC50 (PDE1B [1]) [nM] | IC50 (PDE1A3 [2]) [µM] | IC50 (PDE1C [3]) [µM] | SMILES | other results |
| --- | --- | --- | --- | --- |
| < 1000 | < 1 | < 1 | CCOC[C@H]1CC[C@H](Oc2nn3c(C4CCOCC4)ncc3c(=O)n2CC)CC1 [Example 258] |  |
| < 1000 |  |  | CCn1c(OCC2(C(F)(F)F)CCCC2)nn2c(C3CCOCC3)ncc2c1=O [Example 296] |  |
| < 1000 |  |  | Cn1c(OC2CCCC2)nn2c(C3CCOCC3)ncc2c1=O [Example 299] |  |
| < 1000 |  |  | CCn1c(OC2CCCC2)nn2c(C3CCOCC3)ncc2c1=O [Example 300] |  |
| < 1000 | < 1 | < 1 | Cn1c(OC2CCC(C)(C)CC2)nn2c(C3CCOCC3)ncc2c1=O [Example 302] |  |
| < 1000 |  |  | Cn1c(OC2CCC(F)(F)CC2)nn2c(C3CCOCC3)ncc2c1=O [Example 303] |  |
| < 1000 | < 1 | < 1 | CCn1c(OC2CCC(F)(F)CC2)nn2c(C3CCOCC3)ncc2c1=O [Example 304, 2-[(4,4-difluorocyclohexyl)oxy]-3-ethyl-7-(tetrahydro-2H-pyran-4-yl)imidazo[5,1-f][1,2,4]triazin-4(3H)-one] |  |
| < 1000 | < 1 | < 1 | CCn1c(O[C@H]2CC[C@H](C(F)(F)F)CC2)nn2c(C3CCOCC3)ncc2c1=O [Example 306] |  |
| < 1000 |  |  | CCn1c(O[C@H]2CC[C@@H](C(F)(F)F)CC2)nn2c(C3CCOCC3)ncc2c1=O [Example 308] |  |
| < 1000 | < 1 | < 1 | CCn1c(O[C@H]2CC[C@H](OC)CC2)nn2c(C3CCOCC3)ncc2c1=O [Example 310] |  |
| < 1000 | < 1 | < 1 | CCn1c(O[C@H]2CC[C@@H](OC)CC2)nn2c(C3CCOCC3)ncc2c1=O [Example 313] |  |
| < 1000 | < 1 | < 1 | CCO[C@H]1CC[C@H](Oc2nn3c(C4CCOCC4)ncc3c(=O)n2CC)CC1 [Example 315] |  |
| < 1000 |  |  | CCn1c(O[C@H]2CC[C@@H](COC)CC2)nn2c(C3CCOCC3)ncc2c1=O [Example 319] |  |
| < 1000 |  |  | CCOC[C@H]1CC[C@@H](Oc2nn3c(C4CCOCC4)ncc3c(=O)n2CC)CC1 [Example 321] |  |
